In BigSolDB 2.1:

CC(C)(C)NC[C@H](O)COc1nsnc1N1CCOCC1.O=C(O)/C=C\C(=O)O
Conditions | solubility (mole fraction)
in 2-methyltetrahydrofuran, 293.2 K | 0.0001
in 2-methyltetrahydrofuran, 303.2 K | 0.00017
in 2-methyltetrahydrofuran, 313.2 K | 0.00038
in 2-methyltetrahydrofuran, 323.2 K | 0.00067
in 2-methyltetrahydrofuran, 333.2 K | 0.0013
in acetone, 281.1 K | 0.00048
in acetone, 288.3 K | 0.00056
in acetone, 292.8 K | 0.00065
in acetone, 301.9 K | 0.00089
in acetone, 313.3 K | 0.00121
in acetone, 323.1 K | 0.00166
in cyrene, 284 K | 0.00047
in cyrene, 286.1 K | 0.00054
in cyrene, 289.8 K | 0.00075
in cyrene, 292.4 K | 0.001
in cyrene, 301.1 K | 0.00146
in cyrene, 312.2 K | 0.0023
in cyrene, 323.7 K | 0.00379
in cyrene, 332 K | 0.0055
in dimethyl isosorbide, 282.6 K | 0.00022
in dimethyl isosorbide, 289.1 K | 0.00034
in dimethyl isosorbide, 297.5 K | 0.00052
in dimethyl isosorbide, 309.7 K | 0.00072
in dimethyl isosorbide, 325.9 K | 0.00117
in dimethyl isosorbide, 330.9 K | 0.00151
in ethanol, 280.1 K | 0.00105
in ethanol, 285 K | 0.0012
in ethanol, 290.8 K | 0.00145
in ethanol, 302.3 K | 0.00217
in ethanol, 312.8 K | 0.00319
in ethanol, 322.7 K | 0.00471
in ethanol, 329.8 K | 0.00648
in isopropanol, 279.5 K | 0.00013
in isopropanol, 282.9 K | 0.00014
in isopropanol, 290.9 K | 0.00018
in isopropanol, 293.6 K | 0.00025
in isopropanol, 298.8 K | 0.00037
in isopropanol, 313.7 K | 0.0006
in isopropanol, 321.7 K | 0.00097
in isopropanol, 330.1 K | 0.00143
in n-butanol, 278.3 K | 0.00028
in n-butanol, 281.7 K | 0.00034
in n-butanol, 284.8 K | 0.00038
in n-butanol, 289.6 K | 0.00049
in n-butanol, 303.2 K | 0.00075
in n-butanol, 305.1 K | 0.00087
in n-butanol, 309.1 K | 0.00102
in n-butanol, 316.3 K | 0.00144
in n-butanol, 321.4 K | 0.00178
in n-butanol, 328.7 K | 0.00251
in water, 286 K | 0.00245
in water, 293.1 K | 0.00277
in water, 300.5 K | 0.00319
in water, 305 K | 0.00352
in water, 313.9 K | 0.00449
in water, 320.8 K | 0.00572
in water, 325.8 K | 0.00694
in water, 327.2 K | 0.0074
